Results published in PubChem BioAssay (NCI).
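Test compounds were applied to cells in 96-well plates for 48 hours at 5 doses. TGI: concentration producing complete growth inhibition.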

Columns and labels:
Test in all cases: NCI anticancer screen, dose series, 48 h
[1] = test system: 786-0 renal
[2] = test system: A498 renal
[3] = test system: A549 NSCLC
[4] = test system: ACHN renal
[5] = test system: CAKI-1 renal
[6] = test system: CCRF-CEM leukemia
[7] = test system: COLO 205 colon
[8] = test system: DLD-1 colon
[9] = test system: DMS 114 small cell lung
[10] = test system: DMS 273 small cell lung
[11] = test system: EKVX NSCLC
[12] = test system: HCC-2998 colon
[13] = test system: HCT-116 colon
[14] = test system: HCT-15 colon
[15] = test system: HL-60(TB) leukemia
[16] = test system: HOP-62 NSCLC
[17] = test system: HOP-92 NSCLC
[18] = test system: HT29 colon
[19] = test system: IGROV1 ovarian
[20] = test system: K-562 leukemia
[21] = test system: KM12 colon
[22] = test system: KM20L2 colon
[23] = test system: LOX IMVI melanoma
[24] = test system: LXFL 529 NSCLC
[25] = test system: M14 melanoma
[26] = test system: M19-MEL melanoma
[27] = test system: MALME-3M melanoma
[28] = test system: MOLT-4 leukemia
[29] = test system: NCI-H226 lung
[30] = test system: NCI-H23 lung
[31] = test system: NCI-H460 lung
[32] = test system: NCI-H522 lung
[33] = test system: OVCAR-3 ovarian
[34] = test system: OVCAR-4 ovarian
[35] = test system: OVCAR-5 ovarian
[36] = test system: OVCAR-8 ovarian
[37] = test system: RPMI-8226 leukemia
[38] = test system: RXF 393 renal
[39] = test system: RXF-631 renal
[40] = test system: SF-268 CNS
[41] = test system: SF-295 CNS
[42] = test system: SF-539 CNS
[43] = test system: SK-MEL-2 melanoma
[44] = test system: SK-MEL-28 melanoma
[45] = test system: SK-MEL-5 melanoma
[46] = test system: SK-OV-3 ovarian
[47] = test system: SN12C renal
[48] = test system: SNB-19 CNS
[49] = test system: SNB-75 CNS
[50] = test system: SNB-78 CNS
[51] = test system: SW-620 colon
[52] = test system: TK-10 renal
[53] = test system: U251 CNS
[54] = test system: UACC-257 melanoma
[55] = test system: UACC-62 melanoma
[56] = test system: UO-31 renal
[57] = test system: XF 498 CNS
[58] = test system: HOP-18 NSCLC
[59] = test system: SR leukemia

In the case of `Cc1ccc(NC(=O)CCc2nnc(N)o2)cc1`, the TGI [1] is reported as over 100 µM, the TGI [2] is reported as over 100 µM and the TGI [3] is reported as over 100 µM. The TGI [4] was over 100 µM, the TGI [5] was over 100 µM and the TGI [6] was over 100 µM. For the same compound, the TGI [7] was over 100 µM, the TGI [8] was over 100 µM and the TGI [9] was over 100 µM. The TGI [10] was over 100 µM, the TGI [11] was over 100 µM and the TGI [12] was over 100 µM. For the same compound, the TGI [13] was over 100 µM, the TGI [14] was over 100 µM and the TGI [15] was over 91.7 µM. The TGI [16] was over 100 µM, the TGI [17] was over 100 µM and the TGI [18] was over 100 µM. The TGI [19] was over 100 µM, the TGI [20] was over 100 µM and the TGI [21] was over 100 µM. For the same compound, the TGI [22] was over 100 µM, the TGI [23] was over 100 µM and the TGI [24] was over 100 µM. The TGI [25] was over 100 µM, the TGI [26] was over 100 µM and the TGI [27] was over 100 µM. It also gave a TGI [28] of over 100 µM, a TGI [29] of over 100 µM and a TGI [30] of over 100 µM. For the same compound, the TGI [31] was over 100 µM, the TGI [32] was over 100 µM and the TGI [33] was over 100 µM. It also gave a TGI [34] of over 100 µM, a TGI [35] of over 100 µM and a TGI [36] of over 100 µM. For the same compound, the TGI [37] was over 100 µM, the TGI [38] was over 100 µM and the TGI [39] was over 31.6 µM. The TGI [40] was over 100 µM, the TGI [41] was over 100 µM and the TGI [42] was over 100 µM. The TGI [43] was over 100 µM, the TGI [44] was over 100 µM and the TGI [45] was over 100 µM. The TGI [46] was over 100 µM, the TGI [47] was over 100 µM and the TGI [48] was over 100 µM. The TGI [49] was over 100 µM, the TGI [50] was over 100 µM and the TGI [51] was over 100 µM. It also gave a TGI [52] of over 100 µM, a TGI [53] of over 100 µM and a TGI [54] of over 100 µM. For the same compound, the TGI [55] was over 100 µM, the TGI [56] was over 100 µM and the TGI [57] was over 100 µM.
`CS(=O)(=O)c1ccc(-c2cc(-c3ccc(S(C)(=O)=O)cc3)[n+](-c3cc(-c4ccccc4)c([O-])c(-c4ccccc4)c3)c(-c3ccc(S(C)(=O)=O)cc3)c2)cc1` showed a TGI [1] of over 100 µM, a TGI [2] of over 100 µM and a TGI [3] of over 100 µM. For the same compound, the TGI [4] was over 100 µM, the TGI [5] was over 100 µM and the TGI [7] was over 100 µM. For the same compound, the TGI [9] was over 100 µM, the TGI [10] was over 100 µM and the TGI [11] was over 100 µM. The TGI [12] was over 100 µM, the TGI [13] was over 100 µM and the TGI [14] was over 100 µM. It also gave a TGI [58] of over 100 µM, a TGI [16] of over 100 µM and a TGI [18] of over 100 µM. The TGI [19] was over 100 µM, the TGI [20] was over 100 µM and the TGI [21] was over 100 µM. The TGI [22] was over 100 µM, the TGI [23] was over 100 µM and the TGI [24] was over 100 µM. For the same compound, the TGI [25] was over 100 µM, the TGI [26] was over 100 µM and the TGI [27] was over 100 µM. For the same compound, the TGI [28] was over 100 µM, the TGI [29] was over 100 µM and the TGI [30] was over 100 µM. The TGI [31] was over 100 µM, the TGI [32] was over 100 µM and the TGI [33] was over 100 µM. For the same compound, the TGI [34] was over 100 µM, the TGI [35] was over 100 µM and the TGI [36] was over 100 µM. For the same compound, the TGI [37] was over 100 µM, the TGI [38] was over 100 µM and the TGI [39] was over 100 µM. For the same compound, the TGI [40] was over 100 µM, the TGI [41] was over 100 µM and the TGI [42] was over 100 µM. The TGI [43] was over 100 µM, the TGI [44] was over 100 µM and the TGI [47] was over 100 µM. For the same compound, the TGI [48] was over 100 µM, the TGI [50] was over 100 µM and the TGI [59] was over 100 µM. It also gave a TGI [51] of over 100 µM, a TGI [52] of over 100 µM and a TGI [53] of over 100 µM. The TGI [54] was over 100 µM, the TGI [55] was over 100 µM and the TGI [56] was over 100 µM. The TGI [57] was over 100 µM.
